Measured values from patent US20100034874A1, “LIPOSOME ENCAPSULATING AMMINE-PLATINUM COMPLEX AT HIGH CONCENTRATION, AND METHOD FOR PRODUCTION OF THE LIPOSOME” (KATAYAMA CHEMICAL INDUSTRIES CO., LTD., priority 2006, published 2010).

What was measured:
Solubility in water = assay type: physicochemical
Procedure: For example, in the case of cisplatin, the solubility of cisplatin in water is 2 mg/ml (room temperature). The solubility of cisplatin nitrate is 20 mg/ml. Namely, cisplatin can be used as a platinum complex in an amount of not less than its solubility (room temperature). Ionic species forming a water-soluble or a poorly water-soluble salt with the platinum complex such as cisplatin are known in the art or can be selected properly, and thus, even if the platinum complex is that other than cisplatin, it is possible to select a platinum complex properly by considering its solubility, similarly to cisplatin. In this case, it is possible to form nitrates similarly, by adjusting the equivalent amount of silver nitrate added. In addition, concentrations of a bromide ion and an iodide ion are the same as the concentration of a chloride ion respectively; therefore, with any of these ions, the present invention can be carried out without problems. This is because the bromide ion or the iodide ion, which are higher in binding property than the chloride ion, can form a poorly water-soluble substance similarly, even when the present invention is carried out under the same conditions. Since it is believed that there is no difference in liposomal membrane permeability of each ion, the present invention can be carried out by taking these elements into consideration similarly.

[1] = Conversion of cis-diamine dinitratoplatinum (II) to cis-diamine dichloroplatinum (II) in 150 mM sodium chloride (UV absorption spectrum); assay type: physicochemical
Procedure: Five mg/ml of cis-diamine dinitratoplatinum (II) was dissolved in a TAPS buffer solution containing 150 mM of sodium chloride (pH: 8.4); the solution was stationarily placed at 25° C.; and the UV spectrum of the solution was determined over time (0 minute, 5 minutes, 10 minutes, 15 minutes, 30 minutes and 45 minutes). One mg of cis-diamine dichloroplatinum (II) was dissolved in 1 ml of sodium chloride-containing TAPS buffer solution, to give a control, and the UV spectrum thereof was obtained. […] There was no change in UV spectrum, when the sample was stored without movement for 45 minutes or more. […] This probably occurs because the presence of NaCl leads to the conversion of cis-diamine dinitratoplatinum (II) to the hardly water-soluble cis-diamine dichloroplatinum (II) and the subsequent precipitation of the latter.
Replacement of the nitrate ion of cis-diammine dinitratoplatinum (II) with the chloride ion in the 150 mM sodium chloride solution was studied by absorption spectroscopic method (Comparative Example 1 and FIGS. 4A and 4B).

[2] = cited from earlier work
[3] = tested on: Ehrlich ascites cancer cells (EAT cells); test: Tumor proliferation-inhibiting activity (tumor volume); assay type: in vivo, mouse (Balb/c); details: 1.5 mg/kg caudal vein on days 5, 12, 19, n=3
Procedure: 1×10^6 Ehrlich ascites cancer cells (EAT cells) (ATCC Number: CCl^−77TME (Ehrlich-Letter ascites)) were transplanted subcutaneously into right femoral region of 6-week old mice (Balb/c, female) (n=3), and the following tests were performed after 10 days. The cis-diamine dichloroplatinum (II)-containing sialyl Lewis X-modified liposome and the anti-E-selectin antibody-modified liposome were administered into the caudal vein of a mouse respectively in an amount of 1.5 mg/kg (200 μg/ml) on the 5th, 12th, and 19th days after transplantation. As a control, cis-diamine dichloroplatinum (II) was dissolved in physiological saline to a concentration of 200 μg/ml. The dissolved solution was administered similarly.
The size, length (A mm) and diameter (B mm), of the tumor was determined by using a digital vernier caliper (Mitsutoyo CD-S15C) on the 12th, 19th, and 29th days after tumor transplantation. The volume of the tumor (mm^3) was calculated by the following Formula: (A×B^2)×0.4.

[4] = tested on: Ehrlich ascites cancer cells (EAT cells); test: Cell proliferation-inhibiting activity (MTT assay, WST-8 reagent); assay type: cell-based; details: 48 hours, no sample 0.480, n=3
Procedure: Ehrlich ascites cancer cells (EAT cells) (ATCC Number: CCl^−77TME (Ehrlich-Letter ascites)) were inoculated at 1×10^3 cell/100 μl/well (Falcon3072), and a sample was added after culture for 24 hours. The samples were prepared by diluting the cis-diamine dichloroplatinum (II)-containing unmodified liposome, the cis-diamine dichloroplatinum (II)-containing sialyl Lewis X liposome, and the cis-diamine dichloroplatinum (II)-containing anti-E-selectin antibody-modified liposome, with DMEM buffer solution (Dulbeccos's Ham Modified Eagle liquid medium, low glucose SIGMA D6046)/10% FBS (fetal calf serum SIGMA F0926)/penicillin 100 unit/ml-streptomycin 100 μg/ml (antibiotic antimycotic solution, stabilized SIGMA A5955)) to a cis-diamine dichloroplatinum (II) amount of 10 μg/ml. […] The cell count, 48 hours after addition was determined by the MTT assay of using the formazan amount as an indicator.
In addition, a solution containing only added DMEM/10% FBS was analyzed by the MTT assay as a control containing no sample.
A cell count-measuring reagent WST-8 (Kishida Chemical) was added to each well in an amount of 20 μl, and the absorbance thereof at 450 nm was determined after 2 hours. The absorbance was determined by using GE Healthcare Ultrospec-6300. […]

[5] = tested on: Ehrlich ascites cancer cells (EAT cells) tumor; test: Accumulation at cancerous site: platinum content in removed tumor by FAAS; assay type: in vivo, mouse (Balb/c); details: 1.7 mg/kg body weight, caudal vein, n=1
Procedure: 1×10^6 Ehrlich ascites cancer cells (EAT cells) (ATCC Number: CCl^−77TME (Ehrlich-Letter ascites)) were transplanted subcutaneously into the right femoral region of a 6-week old mouse (Balb/c, female) (n=1) and the following test was performed after 10 days. A cis-diamine dichloroplatinum (II)-containing sialyl Lewis X-modified liposome and a control of pure cis-diamine dichloroplatinum (II) were administered respectively into the caudal vein of a mouse in an amount of 150 μl, i.e. 1.7 mg/kg body weight (226 μg/ml). The resulting tumor was removed, 48 and 96 hours after administration. 0.1 g of the removed tumor tissue (0.2 to 1.0 g) was added to 1 ml of conc. nitric acid, and the mixture was agitated for 5 minutes. After static storage for 1 hour, the mixture was heated at […] in a water bath and then cooled to room temperature. 300 μl of distilled water was added to 100 μl of the nitric 5 acid-treated solution. The content of platinum therein was determined by flameless atomic absorption spectroscopy (FAAS: AA-6700 Atomic absorption flame emission spectrophotometer SIMAZU), and the platinum contents in 1 g of tumor were compared between the sample and the control. […]

## [NH2][Pt]([NH2])([O][N+](=O)[O-])[O][N+](=O)[O-] [CDDP-3, cis-diammine dinitratoplatinum (II)]
Solubility in water
  solubility in water relative to cis-diamine dichloroplatinum (II): approximately 10 times
[1]; TAPS containing 150 mM NaCl, pH 8.4, 25° C., 5 mg/ml
  time for conversion to cis-diamine dichloroplatinum (II): 45 min
[1]; in the presence of 150 mM sodium chloride
  fraction converted to cis-diamine dichloroplatinum (II): ≥ 99%
[2]
  solubility of cisplatin nitrate: 20 mg/mL

## N.N.[Cl][Pt][Cl] [Cisplatin, cis-diammine dichloroplatinum (II)]
[3]; Day 12 after tumor transplantation
  Average tumor volume: 63 mm^3
[3]; Day 19 after tumor transplantation
  Average tumor volume: 63 mm^3
[3]; Day 29 after tumor transplantation
  Average tumor volume: 501 mm^3
[4]; sample final concentration 8.30 μM
  Average absorbance (450 nm): 0.045
[4]; sample final concentration 16.60 μM
  Average absorbance (450 nm): 0.027
[5]; 48 hours after administration
  Platinum concentration (ng/g tissue) in tumor: 361 ng/g tissue
[5]; 96 hours after administration
  Platinum concentration (ng/g tissue) in tumor: 49 ng/g tissue
